According to patent US20260001928A1 (CORTERIA PHARMACEUTICALS, priority 2022, published 2026):
*1 amine or outer side, *2 acyl side, *3 side chain or, on linkers, in order; H or OH if unused. Where a SMILES comes first, the peptide text is derived from it. Side-chain parts run from the residue outwards. [ ]: non-standard residue; d: D form. The star is where a group is joined. C20 diacid = O=C(O)CCCCCCCCCCCCCCCCCCC(=O)*; C18 diacid = O=C(O)CCCCCCCCCCCCCCCCC(=O)*; γGlu = O=C(O)[C@H](CCC(=O)[*:2])N[*:1]; NMeI = CC[C@H](C)[C@H](NC)C(=O)O; AEEA = NCCOCCOCC(=O)O; Aib = CC(C)(N)C(=O)O

Legend:
[1] = In vitro subcutaneous tissue supernatant (SCts) stability and metabolite identification, rat; format: in vitro ADME; parameters: remaining at 2 h: dose or concentration left out as unconfirmed; details: male, Sprague Dawley; rat subcutaneous tissue supernatant (SCts), 37° C, 2 h
[2] = Chemical stability in buffer (pH 7.4 / pH 4.5), % purity loss; format: physicochemical; details: 100 mM phosphate buffer pH 7.4; 40° C. vs 5° C.; 14 or 28 days
Summary of the method: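 LC-UV gave % loss after 14 or 28 days of storage at 5 °C or 40 °C. Samples were diluted supernatants from compound incubated 1 h at room temperature at 10 mg/mL target, in 100 mM acetate pH 4.5 or 100 mM phosphate pH 7.4.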

[3] = Pharmacokinetics in male Sprague Dawley rats after subcutaneous administration; format: in vivo; details: plasma, rat, SC, 0.05 mg/kg
Sprague Dawley rats = assay: Effect on systolic blood pressure, telemetry in Sprague Dawley rats; format: in vivo, rat; details: 0.1 mg/kg SC
Summary of the method: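 Values are % change from a 1 h pre-dose baseline in systolic pressure, tracked by telemetry for up to 48 hours after a single 0.1 mg/kg subcutaneous dose. Rats (Sprague Dawley, n=2 per peptide) carried aortic catheters and recovered at least 10 days post-surgery; duration of action marks the last time point still showing an effect.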

rat CRF2 a = molecular target: T1, rat CRF2 a (Rattus norvegicus, UniProt P47866); assay: Activity at rat CRF2 a, cAMP assay in A7R5 rat aortic smooth muscle cells; format: cell-based; details: 0% HSA, 100% = Sauvagine at 100 nM
T1 construct: host or cells: A7R5 rat aortic smooth muscle cells
T1 sequence (P47866 27-431 isoform P47866-2 limits assumed): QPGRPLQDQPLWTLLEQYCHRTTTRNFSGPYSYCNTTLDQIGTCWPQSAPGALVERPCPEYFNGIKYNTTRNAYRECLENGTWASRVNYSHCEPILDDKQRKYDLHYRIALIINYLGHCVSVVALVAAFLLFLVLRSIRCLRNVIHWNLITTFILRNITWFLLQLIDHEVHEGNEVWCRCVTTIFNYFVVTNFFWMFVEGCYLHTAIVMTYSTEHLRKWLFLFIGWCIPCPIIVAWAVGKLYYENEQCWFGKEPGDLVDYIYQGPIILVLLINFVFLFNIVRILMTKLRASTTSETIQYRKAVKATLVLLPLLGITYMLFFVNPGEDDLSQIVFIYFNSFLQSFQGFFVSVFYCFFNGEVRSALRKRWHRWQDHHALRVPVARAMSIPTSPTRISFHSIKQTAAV
Method: The A7R5 rat aortic smooth muscle cell line used in this study was purchased from ATCC.
Cells were grown in a 10 cm dish at 37° C./5% CO2 in medium (DMEM/10% FBS) to near confluence. At that stage, cells were harvested, resuspended to 10 million/mL in culture medium and with 5% DMSO. 1 mL vial aliquots were slowly frozen to −80° C. in isopropanol and then transferred in liquid nitrogen for storage.
These vials were used to run the experiment following the procedure reported in the previous paragraph, except for the compound used in the control well to define the 100% activation (Sauvagine at 100 nM) and the cell density (final cell density: 5000 cells/well).

CFR1R receptor = molecular target: T2, CFR1R receptor (Homo sapiens, UniProt P34998); assay: Activity at anti-target CFR1R receptor, cAMP assay in CRF1R-overexpression CHO-K1 cells; format: cell-based; details: 100% = Sauvagine at 100 nM; for EC50: cAMP
T2 construct: host or cells: CHO-K1 (clone 2)
T2 sequence (P34998 24-415): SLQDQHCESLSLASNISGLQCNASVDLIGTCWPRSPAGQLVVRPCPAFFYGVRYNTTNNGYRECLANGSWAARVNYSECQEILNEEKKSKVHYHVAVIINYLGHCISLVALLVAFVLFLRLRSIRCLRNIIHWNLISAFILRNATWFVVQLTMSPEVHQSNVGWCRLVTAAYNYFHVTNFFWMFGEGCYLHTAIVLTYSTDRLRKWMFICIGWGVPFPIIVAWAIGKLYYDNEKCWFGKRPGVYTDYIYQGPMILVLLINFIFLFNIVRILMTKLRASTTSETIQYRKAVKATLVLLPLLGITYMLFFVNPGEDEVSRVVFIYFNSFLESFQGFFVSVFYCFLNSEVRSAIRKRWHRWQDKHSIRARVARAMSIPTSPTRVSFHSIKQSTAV
Summary of the method: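 The method mirrors that used with TeloHAEC cells. Here, thawed clone 2 cells seeded at 4000 cells/well are tested, and 100 nM Sauvagine sets the top of the activation scale.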

human CRF2a receptor = molecular target: T3, human CRF2a receptor (Homo sapiens, UniProt Q13324); assay: Activity at human CRF2a receptor, cAMP functional assay in TeloHEAC cells; format: cell-based; details: TeloHEAC cells stably expressing human CRF2a receptor, relative to urocortin 2 (100 nM = 100%)
T3 construct: expressed in transfected cells; host or cells: TeloHEAC cells
T3 sequence (Q13324 1-411): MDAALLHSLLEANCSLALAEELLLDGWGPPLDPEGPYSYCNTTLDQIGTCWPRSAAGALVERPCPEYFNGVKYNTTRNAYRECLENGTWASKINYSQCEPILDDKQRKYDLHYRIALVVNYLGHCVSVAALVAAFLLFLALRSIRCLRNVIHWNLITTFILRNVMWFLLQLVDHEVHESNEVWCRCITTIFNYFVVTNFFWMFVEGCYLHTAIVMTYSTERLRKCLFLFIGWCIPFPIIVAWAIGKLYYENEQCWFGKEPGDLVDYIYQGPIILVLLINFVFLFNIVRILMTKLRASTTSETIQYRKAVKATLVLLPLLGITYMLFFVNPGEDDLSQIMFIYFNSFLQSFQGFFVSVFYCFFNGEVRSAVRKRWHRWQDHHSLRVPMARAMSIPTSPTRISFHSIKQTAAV
Summary of the method: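 TeloHEAC cells stably expressing human CRF2a (10000 cells/well, suspended in HBSS/20 mM HEPES with 2 mM IBMX) were exposed to compounds for 30 min at 37 °C. cAMP was read as the 665/620 nm fluorescence ratio after 1 h at room temperature. EC50 was derived relative to 100 nM urocortin 2, set as 100%.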

CC[C@H](C)[C@H](NC)C(=O)N[C@H](C(=O)N[C@@H](CC(C)C)C(=O)N[C@@H](CO)C(=O)N[C@@H](CC(C)C)C(=O)N[C@@H](CC(=O)O)C(=O)N[C@@H](C(=O)N1CCC[C@H]1C(=O)N[C@H](C(=O)N[C@@H](CCCCN)C(=O)N[C@@H](CC(C)C)C(=O)N[C@@H](CCCCNC(=O)CC[C@H](NC(=O)CCCCCCCCCCCCCCCCC(=O)O)C(=O)O)C(=O)N[C@@H](CCCCN)C(=O)N[C@H](C(=O)N[C@@H](CC(C)C)C(=O)N[C@@H](CC(C)C)C(=O)N[C@@H](CCC(=O)O)C(=O)N[C@@H](CCC(N)=O)C(=O)N[C@@H](CCC(=O)O)C(=O)N[C@@H](CCCCN)C(=O)N[C@@H](CCC(N)=O)C(=O)N[C@@H](CCCCN)C(=O)N[C@@H](C)C(=O)N[C@@H](CCC(N)=O)C(=O)N[C@@H](CCCNC(=N)N)C(=O)N[C@@H](CCC(=O)O)C(=O)N[C@@H](CCC(N)=O)C(=O)N[C@@H](C)C(=O)N[C@@H](CCC(=O)O)C(=O)N[C@H](C(=O)N[C@@H](CC(N)=O)C(=O)NC(C)(C)C(=O)N[C@@H](CCC(N)=O)C(=O)N[C@H](C(=O)N[C@@H](CC(C)C)C(=O)N[C@@H](C)C(=O)N[C@@H](CCC(N)=O)C(=O)N[C@H](C(N)=O)C(C)C)[C@@H](C)CC)[C@@H](C)O)[C@@H](C)CC)[C@@H](C)CC)C(C)C)C(C)C [compound 144] (H-[NMeI]VLSLD[dV]PIKLK([γGlu-C18 diacid])KILLEQEKQKAQREQAETN[Aib]QILAQV-NH2)
remaining at 2 h [1]: 74% | Buffer stability pH 7.4 % purity loss [2]: 0.0/Not Tested % | AUC(0-t) [3]: 1710 ng·h/mL | Cmax [3]: 105 ng/mL | Tmax [3]: 6 h | half-life [3]: 12.6 h | Systolic blood pressure (Mean) % change from baseline, 8 h (Sprague Dawley rats; 8 h, n=2): −22% | Systolic blood pressure (Mean) % change from baseline, 12 h (Sprague Dawley rats; 12 h, n=2): −17% | Systolic blood pressure (Mean) % change from baseline, 24 h (Sprague Dawley rats; 24 h, n=2): 1% | Duration of action (Sprague Dawley rats; last time point with an effect on BP still observed): 23 h | EC50 (rat CRF2 a): 0.06 nM

CC[C@H](C)[C@H](NC(C)=O)C(=O)N[C@H](C(=O)N[C@@H](CC(C)C)C(=O)N[C@@H](CO)C(=O)N[C@@H](CC(C)C)C(=O)N[C@@H](CC(=O)O)C(=O)N[C@@H](C(=O)N1CCC[C@H]1C(=O)N[C@H](C(=O)N[C@@H](CCCCN)C(=O)N[C@@H](CC(C)C)C(=O)N[C@@H](CCCCNC(=O)COCCOCCNC(=O)COCCOCCNC(=O)CC[C@H](NC(=O)CCCCCCCCCCCCCCCCCCC(=O)O)C(=O)O)C(=O)N[C@@H](CCCCN)C(=O)N[C@H](C(=O)N[C@@H](CC(C)C)C(=O)N[C@@H](CC(C)C)C(=O)N[C@@H](CCC(=O)O)C(=O)N[C@@H](CCC(N)=O)C(=O)N[C@@H](CCC(=O)O)C(=O)N[C@@H](CCCCN)C(=O)N[C@@H](CCC(N)=O)C(=O)N[C@@H](CCCCN)C(=O)N[C@@H](CCCCN)C(=O)N[C@@H](CCC(N)=O)C(=O)N[C@@H](CCCNC(=N)N)C(=O)N[C@@H](CCC(=O)O)C(=O)N[C@@H](CCC(N)=O)C(=O)N[C@@H](C)C(=O)N[C@@H](CCC(=O)O)C(=O)N[C@H](C(=O)N[C@@H](CC(N)=O)C(=O)NC(C)(C)C(=O)N[C@@H](CCC(N)=O)C(=O)N[C@H](C(=O)N[C@@H](CC(C)C)C(=O)N[C@@H](C)C(=O)N[C@@H](CCC(N)=O)C(=O)N[C@H](C(N)=O)C(C)C)[C@@H](C)CC)[C@@H](C)O)[C@@H](C)CC)[C@@H](C)CC)C(C)C)C(C)C [compound 238] (Ac-IVLSLD[dV]PIKLK([AEEA-AEEA-γGlu-C20 diacid])KILLEQEKQKKQREQAETN[Aib]QILAQV-NH2)
Emax (% I) (CFR1R receptor): 12 % I | EC50 (CFR1R receptor): > 250 nM | EC50 (human CRF2a receptor): 0.11 nM | EC50 (rat CRF2 a): 0.09 nM

CC[C@H](C)[C@H](NC(C)=O)C(=O)N[C@H](C(=O)N[C@@H](CC(C)C)C(=O)N[C@@H](CO)C(=O)N[C@@H](CC(C)C)C(=O)N[C@@H](CC(=O)O)C(=O)N[C@@H](C(=O)N1CCC[C@H]1C(=O)N[C@H](C(=O)N[C@@H](CCCCN)C(=O)N[C@@H](CC(C)C)C(=O)N[C@@H](CCCCNC(=O)CC[C@H](NC(=O)CC[C@H](NC(=O)CCCCCCCCCCCCCCCCCCC(=O)O)C(=O)O)C(=O)O)C(=O)N[C@@H](CCCCN)C(=O)N[C@H](C(=O)N[C@@H](CC(C)C)C(=O)N[C@@H](CC(C)C)C(=O)N[C@@H](CCC(=O)O)C(=O)N[C@@H](CCC(N)=O)C(=O)N[C@@H](CCC(=O)O)C(=O)N[C@@H](CCCCN)C(=O)N[C@@H](CCC(N)=O)C(=O)N[C@@H](CCCCN)C(=O)N[C@@H](CCCCN)C(=O)N[C@@H](CCC(N)=O)C(=O)N[C@@H](CCCNC(=N)N)C(=O)N[C@@H](CCC(=O)O)C(=O)N[C@@H](CCC(N)=O)C(=O)N[C@@H](C)C(=O)N[C@@H](CCC(=O)O)C(=O)N[C@H](C(=O)N[C@@H](CC(N)=O)C(=O)NC(C)(C)C(=O)N[C@@H](CCC(N)=O)C(=O)N[C@H](C(=O)N[C@@H](CC(C)C)C(=O)N[C@@H](C)C(=O)N[C@@H](CCC(N)=O)C(=O)N[C@H](C(N)=O)C(C)C)[C@@H](C)CC)[C@@H](C)O)[C@@H](C)CC)[C@@H](C)CC)C(C)C)C(C)C [compound 243] (Ac-IVLSLD[dV]PIKLK([γGlu-γGlu-C20 diacid])KILLEQEKQKKQREQAETN[Aib]QILAQV-NH2)
Emax (% I) (CFR1R receptor): 8 % I | EC50 (CFR1R receptor): > 250 nM | EC50 (human CRF2a receptor): 0.13 nM | EC50 (rat CRF2 a): 0.09 nM

CC[C@H](C)[C@H](NC(C)=O)C(=O)N[C@H](C(=O)N[C@@H](CC(C)C)C(=O)N[C@@H](CO)C(=O)N[C@@H](CC(C)C)C(=O)N[C@@H](CC(=O)O)C(=O)N[C@@H](C(=O)N1CCC[C@H]1C(=O)N[C@H](C(=O)N[C@@H](CCCCN)C(=O)N[C@@H](CC(C)C)C(=O)N[C@@H](CCCCNC(=O)COCCOCCNC(=O)CC[C@H](NC(=O)CCCCCCCCCCCCCCCCCCC(=O)O)C(=O)O)C(=O)N[C@@H](CCCCN)C(=O)N[C@H](C(=O)N[C@@H](CC(C)C)C(=O)N[C@@H](CC(C)C)C(=O)N[C@@H](CCC(=O)O)C(=O)N[C@@H](CCC(N)=O)C(=O)N[C@@H](CCC(=O)O)C(=O)N[C@@H](CCCCN)C(=O)N[C@@H](CCC(N)=O)C(=O)N[C@@H](CCCCN)C(=O)N[C@@H](C)C(=O)N[C@@H](CCC(N)=O)C(=O)N[C@@H](CCCNC(=N)N)C(=O)N[C@@H](CCC(=O)O)C(=O)N[C@@H](CCC(N)=O)C(=O)N[C@@H](C)C(=O)N[C@@H](CCC(=O)O)C(=O)N[C@H](C(=O)N[C@@H](CC(N)=O)C(=O)NC(C)(C)C(=O)N[C@@H](CCC(N)=O)C(=O)N[C@H](C(=O)N[C@@H](CC(C)C)C(=O)N[C@@H](C)C(=O)N[C@@H](CCC(N)=O)C(=O)N[C@H](C(N)=O)C(C)C)[C@@H](C)CC)[C@@H](C)O)[C@@H](C)CC)[C@@H](C)CC)C(C)C)C(C)C [compound 232] (Ac-IVLSLD[dV]PIKLK([AEEA-γGlu-C20 diacid])KILLEQEKQKAQREQAETN[Aib]QILAQV-NH2)
Emax (% I) (CFR1R receptor): 13 % I | EC50 (CFR1R receptor): > 250 nM | EC50 (human CRF2a receptor): 0.12 nM | EC50 (rat CRF2 a): 0.4 nM
